# Values quoted from earlier work in US20190240144A1, “EFFERVESCENT DEFERIPRONE TABLET” (priority 2016, published 2019).
# Conditions: in vivo
smiles,measurement,value
CC(=O)N(O)CCCCCNC(=O)CCC(=O)N(O)CCCCCNC(=O)CCC(=O)N(O)CCCCCN [deferoxamine],half-life (t1/2),5-10 minus
